Columns and labels:
[1] = target: T1, PDE4B (human recombinant) (Homo sapiens, UniProt Q07343); assay: Inhibition of PDE4B catalytic activity (SPA or IMAP FP assay); format: biochemical; conditions: SPA or FP assay not specified, read-out: PDE4B mean pIC50 (converted)
T1 construct: made in house; host or cells: Saccharomyces cerevisiae strain GL62 (as described in the cited WO 94/20079)
Source text: Human recombinant PDE4B, in particular the 2B splice variant thereof (HSPDE4B2B), is disclosed in WO 94/20079 and also in M. M. McLaughlin et al., “A low Km, rolipram-sensitive, cAMP-specific phosphodiesterase from human brain: cloning and expression of cDNA, biochemical characterisation of recombinant protein, and tissue distribution of mRNA”, J. Biol. Chem., 1993, 268, 6470-6476. […]
(§1) The ability of compounds to inhibit catalytic activity at PDE4B or 4D (human recombinant), PDE3 (from bovine aorta) PDE5 (human recombinant) or PDE 6 (from bovine retina) may be determined by Scintillation Proximity Assay (SPA) in 96-well format. […] Bound radioactive product was measured using a WALLAC TRILUX 1450 MicroBeta scintillation counter. […] Curves were analysed using ActivityBase and XLfit (ID Businesss Solutions Limited, 2 Ocean Court, Surrey Research Park, Guildford, Surrey GU2 7QB, United Kindgom). Results were expressed as pIC50 values.
The ability of compounds to inhibit catalytic activity at PDE4B (human recombinant) and PDE4D (human recombinant) was determined by IMAP Fluorescence Polarisation (FP) assay (Molecular Devices Ltd code: R8062) in 384-well format. […]
Fluorescein adenosine 3′,5′-cyclic phosphate (Molecular Devices Ltd code: R7091) was added to give ˜40 nM final concentration. […] Curves were analysed using ActivityBase and XLfit (ID Businesss Solutions Limited). […]

PDE5 (human recombinant) = PDE5 (human recombinant) (Homo sapiens, UniProt O76074); assay: Inhibition of PDE5 catalytic activity (SPA); format: biochemical; conditions: read-out: PDE5 mean pIC50 (converted)
Source text: Human recombinant PDE5 is disclosed in K. Loughney et al., “Isolation and characterisation of cDNAs encoding PDE5A, a human cGMP-binding, cGMP-specific 3′,5′-cyclic nucleotide phosphodiesterase”, Gene, 1998, 216, 139-147.
as §1, with “format. Test compounds (preferably as a solution in DMSO, e.g. 2 microlitre (μl) volume) were preincubated at ambient temperature in Wallac Isoplates (code 1450-514) with PDE enzyme in 50 mM Tris-HCl buffer pH 7.5, 8.3 mM MgCl2, 1.7 mM EGTA, 0.05% (w/v) bovine serum albumin for 10-30 minutes. The enzyme concentration was adjusted so that control rates are linear over the asay incubation period.” for “format.”

T1 sequence (Q07343 1-564 isoform Q07343-2): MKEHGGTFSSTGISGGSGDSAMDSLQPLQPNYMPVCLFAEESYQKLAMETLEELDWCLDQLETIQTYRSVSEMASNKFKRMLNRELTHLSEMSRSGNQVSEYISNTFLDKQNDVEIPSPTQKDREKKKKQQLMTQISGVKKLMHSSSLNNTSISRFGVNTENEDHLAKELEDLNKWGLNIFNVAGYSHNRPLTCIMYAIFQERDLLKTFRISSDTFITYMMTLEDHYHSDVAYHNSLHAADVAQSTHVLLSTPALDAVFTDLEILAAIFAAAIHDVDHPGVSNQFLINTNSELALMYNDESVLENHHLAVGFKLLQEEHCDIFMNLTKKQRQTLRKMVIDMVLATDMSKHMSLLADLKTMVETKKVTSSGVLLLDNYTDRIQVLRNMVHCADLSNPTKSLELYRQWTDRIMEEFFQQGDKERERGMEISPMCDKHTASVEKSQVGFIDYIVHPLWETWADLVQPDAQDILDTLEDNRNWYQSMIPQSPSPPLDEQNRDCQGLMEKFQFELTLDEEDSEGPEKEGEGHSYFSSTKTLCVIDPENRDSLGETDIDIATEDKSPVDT

IC50 [1] | IC50 (PDE5 (human recombinant)) | SMILES
0.001 µM | 15.8 µM | COc1cccc(Nc2c(C(N)=O)cnc3ccc(S(=O)(=O)N(C)C)cc23)c1 [Example 2, 6-[(dimethylamino)sulfonyl]4-{[3-(methyloxy)phenyl]amino}-3-quinolinecarboxamide]
0.00251 µM | 12.6 µM | NC(=O)c1cnc2ccc(S(=O)(=O)N3CCOCC3)cc2c1Nc1cccc(Cl)c1 [Example 4]

Reference: patent US20080096884A1, “4-Aminoquinoline-3-Carboxamide Derivatives as Pde4 Inhibitors” (priority 2003, published 2008)
